In brackets after ≈: the same amount, converted by molar mass. Read-outs that look alike come from different tables or passages of the source.
What was measured:
B. anthracis Sterne [1] = assay: microbe, parasite or virus in culture; type: cell-based, Bacillus anthracis; settings: for MIC: Bacillus anthracis, read-out: MIC B. anthracis Sterne
B. anthracis Sterne [2] = settings: cited from earlier work
B anthracis DHFR = B anthracis DHFR (Bacillus anthracis, UniProt Q81R22); assay: biochemical; settings: Ki ± SEM B anthracis DHFR
Sequence of B anthracis DHFR (Q81R22 1-162): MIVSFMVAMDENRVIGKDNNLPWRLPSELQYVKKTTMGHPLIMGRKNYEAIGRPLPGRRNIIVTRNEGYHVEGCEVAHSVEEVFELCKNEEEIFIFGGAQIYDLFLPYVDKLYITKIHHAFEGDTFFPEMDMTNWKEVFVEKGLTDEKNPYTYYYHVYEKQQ

Q: For `CCOc1cc(Cc2cnc(N)nc2N)cc(/C=C/C(=O)N2N=Cc3ccccc3C2C=C(C)C)c1OCC` (racemic) [Compound 19b, (±)-(E)-3-{5-[(2,4-Diamino-5-pyrimidinyl)methyl]-2,3-diethoxyphenyl}-1-(1-isobutenyl-2(1H)-phthalazinyl)-2-propen-1-one], which MIC (B. anthracis Sterne [1]) is on record?
A: 1 to 2 µg/mL (≈ 1.9 to 3.8 µM)

Q: For `COc1cc(Cc2cnc(N)nc2N)cc(OC)c1OC` [TMP, Trimethoprim], which “MIC B. anthracis Sterne” value (B. anthracis Sterne [2]) is on record?
A: > 2048 µg/mL

Q: Which “MIC B. anthracis Sterne” value (B. anthracis Sterne [1]) does the source give for `CCCC1c2ccccc2C=NN1C(=O)/C=C/c1cc(Cc2cnc(N)nc2N)cc(OC(=O)c2ccccc2)c1OC` (racemic) [Compound 29, (±)-(E)-5-[(2,4-Diamino-5-pyrimidinyl)methyl]-2-methoxy-3-[3-oxo-3-(1-propyl-2(1H)-phthalazinyl)-1-propen-1-yl]phenyl benzoate] here?
A: 4 to 16 µg/mL

Q: And the MIC (B. anthracis Sterne [1])?
A: 2 to 16 µg/mL (≈ 3.47 to 27.7 µM)

Q: Which Ki (B anthracis DHFR) does the source give for `CCCC1c2ccccc2C=NN1C(=O)/C=C/c1cc(Cc2cnc(N)nc2N)cc(OCc2ccc(C(F)(F)F)cc2)c1OC` (racemic) [Compound 34, (±)-(E)-3-{5-[(2,4-Diamino-5-pyrimidinyl)methyl]-2-methoxy-3-[(4-(trifluoromethyl)benzyl)oxy]phenyl}-1-(1-propyl-2(1H)-phthalazinyl)-2-propen-1-one] here?
A: > 2.2 µM

— PMC4278362 (Bioorganic & medicinal chemistry, 2014)
